Test results from patent publication EP1039902B1, “INHIBITORS OF GAP JUNCTION COMMUNICATION” (THE SCRIPPS RESEARCH INSTITUTE, priority 1997, dated 1999).
“Also recorded” adds a separate entry of the source.

Experiments:
[1] = tested on: rat glial cell gap junction; test: Gap junction dye coupling assay (Lucifer yellow dye transfer; microinjection or scrape loading); assay type: cell-based; conditions: for potency of gap junction inhibition relative to oleamide: comparison in words
Procedure: (§1) Rat glial cells (Suter et al., 1987) obtained from Dr. Trosko's laboratory were cultured in standard plastic tissue cultureware in Richter's Improved Minimal Essential Medium (Irvine Scientific, Santa Ana, CA), supplemented with 10% fetal calf serum and 50 µg/ml gentamicin sulfate, and incubated in a humidified atmosphere of 95% air/5% CO2 at 37°C. The cells were passaged by trypsinization and used at passages 4-8. BHK (baby hamster kidney) cells that were stably transfected with a β1 connexin cDNA (Kumar et al., 1995) were cultured in DMEM medium supplemented with 5% fetal calf serum and 50 µg/ml gentamicin sulfate, and incubated in a humidified atmosphere of 95% air/5% CO2 at 37° C. In order to induce β1 connexin expression in the BHK cells, 100 µM zinc acetate was added to culture medium for 8-18 hours when the cell culture was about 90% confluent.
(§2) Gap junctional communication in glial cell and BHK/β1 cell cultures was assayed by microinjection of 5% Lucifer yellow CH dye in 0.1 M LiCl solution, and quantitated by determining the number of directly adjacent, neighboring cells that received dye (dye-coupling). Micropipettes were loaded with the dye solution by backfilling. Cells were visualized using a Nikon Diaphot inverted phase contrast/ epifluorescent microscope, and impaled with dye-filled micropipettes using an Eppendorf microinjector (model 5246). Five minutes after dye-injection, the transfer of dye to directly adjacent cells was determined using epifluorescent illumination. For each treatment condition, ten cells were microinjected in each of three dishes, the total number of dye-coupled neighboring cells was calculated and compared to determine the % dye-coupling. For scrape loading measurements, Lucifer yellow CH (0.05% dye in PBS) was loaded intracellularly by cutting or scraping cells in the monolayer with a sharp knife. The dye solution was left in the dish for 90 seconds, then the solution was discarded, and the dish subsequently washed with PBS. The cells were examined for dye transfer with an inverted epifluorescence microscope, and the degree of communication was assessed by determining the extent of Lucifer yellow transfer into contiguous cells.

α1 connexin = test: Immunoblotting of α1 connexin phosphorylation isoforms; assay type: cell-based, rat; conditions: 50 µM, 4 hours
Procedure: Plasma membrane fractions containing gap junctions were obtained after hypotonic alkali extraction of the glial cells. The extracted protein was dissolved in 2% SDS and the total protein was determined using the Bio-Rad DC Protein Assay kit (Bio-Rad Corp.). 10 µg of protein was electrophoresed by 10% SDS-PAGE, and subsequently blotted electrophoretically on to Immobilon-P membranes (Millipore Corp.). Gap junction protein was detected using anti-α1 connexin polyclonal rabbit antibodies, and the HRP/Chemiluminescence detection kit (Amersham Corp.) following the manufacturer's instructions.

BHK/β1 cells = test: Gap junction dye transfer between β1 connexin-transfected BHK cells; assay type: cell-based, baby hamster
Procedure: as §1, §2

rat glial cells = test: Calcium wave propagation (Fluo-3, mechanical stimulation); assay type: cell-based
Procedure: Rat glial cells were loaded with 5 µM Fluo-3/AM (Calbiochem) in Hank's balanced salt solution containing 25 mM HEPES buffer (HBSS/HEPES) for 1 hour, at which point the loading buffer was exchanged for new HBSS/HEPES buffer. The cell cultures were then left at room temperature for at least 30 minutes. Mechanical stimulation of a single cell was performed as follows: a glass micropipette (tip diameter of approximately 0.5 µm) was micro-manipulated downward on to a single cell causing a transient deformation of the cell membrane. The calcium image was then examined with an inverted fluorescence microscope, and photographed with a digital fluorescence microscope (excitation = 506 nm, emmision = 526 nm). The degree of calcium wave propagation was quantitated by counting at different time points the number of transmitting cells in one linear direction away from the stimulated cell. Junctional dye transfer rates were simultaneously examined by microinjection of Lucifer yellow CH in the same dishes; the methods for dye transfer assay was described in assay procedures, gap junction dye coupling assays. For calcium wave and dye transfer studies, the drug was preincubated with the glial cells for 10 minutes, and the drug was left in the experimental solution throughout the examination. All measurements were performed at room temperature.

[2] = result in words, concentration not stated at the place

Q: For CCCCCCCC/C=C\CCCCCCCC(=O)NCC(N)=O [N-oleoyl glycinamide], which “inhibition of gap junction-mediated dye transfer” value [1, 2] is on record?
A: Its value is “ineffective”.

Q: Which “inhibition of gap junction-mediated dye transfer” value [1, 2] does the source give for CCCC/C=C\CCCCCCCC(N)=O [14:1^9, Myristoleamide] here?
A: Its value is “loss of activity”.

Q: Which “inhibition of gap junction-mediated dye transfer” value [1, 2] does the source give for CCCCCCCC/C=C\CCCCCCC(SC(C)=O)C(N)=O (stereo not drawn) [α-acetylthiooleamide] here?
A: Its value is “effective inhibitors”.

Q: How did the “inhibition of gap junction-mediated dye transfer” value [1, 2] turn out when CCCCCC/C=C\CCCCCCCC(N)=O [palmitoleamide, Palmitoleamide] was run?
A: Its value is “potent activity”.

Q: Which results are given for CCCCCC/C=C\CCCCCCCCCC(N)=O [cis-11-octadecenamide]?
A: inhibition of gap junction-mediated dye transfer ([1]; 50 µM): only slightly affected junctional coupling; inhibition of gap junction-mediated dye transfer ([1]; 100 µM): completely blocked dye transfer

Q: CCCCCCCC/C=C\CCCCCCC(C)C(N)=O (stereo not drawn) [α-methyl oleamide] was tested. Which “inhibition of gap junction-mediated dye transfer” value [1, 2] did it give?
A: The value was “potent inhibitors”.

Q: Which “inhibition of gap junction-mediated dye transfer” value [1, 2] does the source give for COCCCCCCCC/C=C\CCCCCCCC(N)=O [CH2OCH3] here?
A: The value was “did not effect the gap junction inhibition”.

Q: Which “inhibition of gap junction-mediated dye transfer” value [1, 2] does the source give for CCCCCCCC/C=C\CCCCCCCC(=O)NCC(=O)OCC [N-oleoyl glycine ethyl ester] here?
A: Its value is “effective, albeit slightly less potent, inhibitor”.

Q: With CCCCCCCCCCCCCCCCCC(N)=O [18:0, stearamide] as the compound, how does the “inhibition of gap junction-mediated dye transfer” value ([1]; result in words, concentration not given, listed as octadecanamide) read?
A: The value was “ineffective”.

Q: What about the “inhibition of gap junction-mediated dye transfer” value [1, 2] of the same compound?
A: The value was “no observable inhibition”.

Q: Which “inhibition of gap junction-mediated dye transfer” value ([1]; 50 µM) does the source give for NC(=O)CCCCCCC/C=C\CCCCCCCC(N)=O [symmetrical 18:1^9 dicarboxamide] here?
A: The value was “no gap junction inhibition”.

Q: Which “inhibition of gap junction-mediated dye transfer” value [1, 2] does the source give for CCCCCCCC/C=C\CCCCCCC(Cl)C(N)=O (stereo not drawn) [α-chlorooleamide] here?
A: The value was “effective inhibitors”.

Q: For CCCCCCCC/C=C\CCCCCCC(O)C(N)=O (stereo not drawn) [α-hydroxy oleamide, 2-hydroxy-9Z-octadecenamide], which “inhibition of gap junction-mediated dye transfer” value [1, 2] is on record?
A: The value was “effective inhibitors”.

Q: NC(=O)CCCCCCC/C=C\CCCCCCCCO [terminal alcohol, 18-hydroxyoleamide] was tested. Which “inhibition of gap junction-mediated dye transfer” value ([1]; 50 µM) did it give?
A: The value was “no gap junction inhibition”.

Q: CCCCCCCC/C=C\CCCCCCCC(=O)N(C)CC(=O)O [N-oleoyl sarcosine] was tested. Which “inhibition of gap junction-mediated dye transfer” value [1, 2] did it give?
A: Its value is “effective inhibitors”.

Q: With CC/C=C\C/C=C\C/C=C\CCCCCCCC(N)=O [α-linolenamide] as the compound, how does the “inhibition of gap junction-mediated dye transfer” value ([1]; 50 µM) read?
A: The value was “ineffective”.

Q: NC(=O)CCCCCCC/C=C\CCCCCCCC(=O)O [carboxylic acid] was tested. Which “inhibition of gap junction-mediated dye transfer” value ([1]; 50 µM) did it give?
A: Its value is “no gap junction inhibition”.

Q: Which “inhibition of gap junction-mediated dye transfer” value [1, 2] does the source give for CCCCCCCC/C=C\CCCCCCCCO [oleyl alcohol, Oleyl alcohol] here?
A: The value was “progressively reduced effectiveness”.

Q: With CCCCCCCC/C=C\CCCCCCCC(=O)N(C)CC(=O)OCC [N-oleoyl sarcosine ethyl ester] as the compound, how does the “inhibition of gap junction-mediated dye transfer” value [1, 2] read?
A: The value was “effective inhibitors”.

Q: How did the “inhibition of gap junction-mediated dye transfer” value [1, 2] turn out when CCCCC/C=C\C/C=C\C/C=C\CCCCC(N)=O [γ-linolenamide] was run?
A: The value was “effective but less potent inhibitor”.

Q: CCCCCCCC/C=C\CCCCCCCC(OC)OC [oleyl aldehyde dimethyl acetal, Oleyl aldehyde dimethyl acetal] was tested. Which “inhibition of gap junction-mediated dye transfer” value [1, 2] did it give?
A: The value was “inactive”.

Q: For CCCCCCCC/C=C\CCCCCCCC(=O)N(C)OC [MeONMe], which “inhibition of gap junction-mediated dye transfer” value [1, 2] is on record?
A: Its value is “most potent of the agents examined”.

Q: Which results are given for CCCCCCCC/C=C/CCCCCCCC(N)=O [trans-9-octadecenamide]?
A: inhibition of gap junction-mediated dye transfer ([1]; result in words, concentration not given, listed as 18:1^9-trans): no observable inhibition; inhibition of gap junction-mediated dye transfer [1, 2]: ineffective; also recorded: no effect; α1 connexin phosphorylation profile (P2 isoform) (α1 connexin): No change; effect on dye transfer (BHK/β1 cells; 50 µM, 4 hours of treatment): no effect; effect on dye transfer (BHK/β1 cells; concentration not given): no effect

Q: How did the “inhibition of gap junction-mediated dye transfer” value [1, 2] turn out when CCCCCCCC/C=C\CCCCCCCC(=O)NCCCO [oleyl propanolamide] was run?
A: Its value is “comparable properties”.

Q: With CCCCCCCC/C=C\CCCCCCCC(=O)OCC [ethyl oleate] as the compound, how does the “inhibition of gap junction-mediated dye transfer” value [1, 2] read?
A: The value was “progressively reduced effectiveness”.

Q: How did the “inhibition of gap junction-mediated dye transfer” value [1, 2] turn out when CCCCCCCC/C=C\CCCCCCC(S)C(N)=O (stereo not shown) [CHSH] was run?
A: Its value is “ineffective”.

Q: CCCCCCCC/C=C\CCCCCCCC(=O)OC [methyl oleate] was tested. Which “inhibition of gap junction-mediated dye transfer” value [1, 2] did it give?
A: The value was “progressively reduced effectiveness”.

Q: Which calcium wave propagation (rat glial cells; 40 µM, 10 minutes prior to mechanical stimulation) does the source give for CC1(C)[C@@H](O)CC[C@]2(C)[C@H]3C(=O)C=C4[C@@H]5C[C@@](C)(C(=O)O)CC[C@]5(C)CC[C@@]4(C)[C@]3(C)CC[C@@H]12 [18β-GA, 18β-glycyrrhetinic acid, reference compound] here?
A: The calcium wave propagation was “completely blocking; also recorded: did not propagate to any other cells”.

Q: What about the “block of dye transfer” value ([1]; 40 µM) of the same compound?
A: The value was “completely blocking”.

Q: What about the “potency of gap junction inhibition relative to oleamide” value [1] of the same compound?
A: Its value is “blocked dye transfer at doses comparable to oleamide”.

Q: What about the “effect on dye transfer” value (BHK/β1 cells; concentration not given) of the same compound?
A: The value was “inhibitory effects”.

Q: For CCCCCCCC/C=C\CCCCCCC(C)(C)C(N)=O [α,α-dimethyl oleamide], which “inhibition of gap junction-mediated dye transfer” value [1, 2] is on record?
A: The value was “potent inhibitors”.

Q: CCCCCCCC/C=C\CCCCCCCC(=O)CBr [BrCH2, 1-Bromo-10Z-nonadecen-2-one] was tested. Which “inhibition of gap junction-mediated dye transfer” value [1, 2] did it give?
A: The value was “substantially less effective”.

Q: CCCCCCCC/C=C\CCCCCCCCOC(C)=O [oleyl acetate, Oleyl acetate] was tested. Which “inhibition of gap junction-mediated dye transfer” value [1, 2] did it give?
A: The value was “progressively reduced effectiveness”.

Q: What does the source list for Cc1ccc(C(=O)Nc2ccc(S(=O)(=O)O)c3cc(S(=O)(=O)O)cc(S(=O)(=O)O)c23)cc1NC(=O)c1cccc(NC(=O)Nc2cccc(C(=O)Nc3cc(C(=O)Nc4ccc(S(=O)(=O)O)c5cc(S(=O)(=O)O)cc(S(=O)(=O)O)c45)ccc3C)c2)c1 [suramin, reference compound]?
A: glial calcium wave transmission (rat glial cells; 200 µM): blocked glial calcium wave transmission; gap junction communication ([1]; 200 µM): without affecting gap junction communication

Q: With CCCCCCCO [heptanol, reference compound] as the compound, how does the calcium wave propagation (rat glial cells; 3 mM) read?
A: Its calcium wave propagation is “completely blocking”.

Q: And the “block of dye transfer” value ([1]; 3 mM)?
A: The value was “completely blocking”.

Q: What about the minimal effective concentration ([1]; Rattus norvegicus, Glial cell, read-out: concentrations required to inhibit junctional communication) of the same compound?
A: The minimal effective concentration was 3000 µM.

Q: And the “effect on dye transfer” value (BHK/β1 cells; concentration not given)?
A: The value was “inhibitory effects”.

Q: With CCCCC/C=C\C/C=C\CCCCCCCC(N)=O [linoleamide, Linoleamide] as the compound, how does the “potency of gap junction inhibition relative to oleamide” value [1] read?
A: Its value is “lower than oleamide”.

Q: CCCCCCCC/C=C\CCCCCCCC(=O)NCC(=O)O [N-oleoyl glycine] was tested. Which “inhibition of gap junction-mediated dye transfer” value [1, 2] did it give?
A: The value was “ineffective”.

Q: What does the source list for CCCCCCCCC/C=C\CCCCCCC(N)=O [cis-8-octadecenamide]?
A: inhibition of gap junction-mediated dye transfer ([1]; 50 µM): significant inhibitors; potency of gap junction inhibition relative to oleamide [1]: less potent than oleamide at lower doses

Q: For CCCCCCCC/C=C\CCCCCCCC(=O)CCl [ClCH2], which “inhibition of gap junction-mediated dye transfer” value [1, 2] is on record?
A: Its value is “substantially less effective”.

Q: With CCCCC/C=C\C/C=C\C/C=C\C/C=C\CCCC(N)=O [arachidonamide] as the compound, how does the “potency of gap junction inhibition relative to oleamide” value [1] read?
A: The value was “not quite as potent as oleamide”.

Q: What about the “inhibition of gap junction-mediated dye transfer” value [1, 2] of the same compound?
A: Its value is “effective inhibitor”.

Q: For CCCCCCCC/C=C\CCCCCCCC(=O)OC[C@H](CO)OC(C)=O [(2S)-1-oleoyl-2-acetylglycerol, reference compound], which “inhibition of gap junction-mediated dye transfer” value [1, 2] is on record?
A: Its value is “not inhibitors”.

Q: How did the “potency of gap junction inhibition relative to oleamide” value [1] turn out when CCCCCCCCC#CCCCCCCCC(N)=O [compound 2, 9-octadecynamide] was run?
A: The value was “only slightly less active than oleamide”.

Q: What about the “inhibition of gap junction-mediated dye transfer” value [1, 2] of the same compound?
A: The value was “potent inhibitor”.
